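The compound was tested at five concentrations on cells cultured in 96-well plates, with a 48-hour exposure period. GI50 is the concentration that inhibits growth by half.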 The source made the active and inactive calls. Cut-off read from the data, not from the text of the source: active = GI50 up to about 1.1 µM and inactive = higher.
Tests used:
Assay in all cases: growth of human tumour cells (NCI), 48 h
BT-549 = tested on: BT-549
EKVX = tested on: EKVX
Malme-3M = tested on: Malme-3M
UACC-62 = tested on: UACC-62
MDA-MB-231 = tested on: MDA-MB-231
RXF 393 = tested on: RXF 393
SK-MEL-28 = tested on: SK-MEL-28
A498 = tested on: A498
A549 = tested on: A549
MOLT-4 = tested on: MOLT-4
CAKI-1 = tested on: CAKI-1
HCT-15 = tested on: HCT-15
UACC-257 = tested on: UACC-257
HT-29 = tested on: HT-29
MDA-MB-435 = tested on: MDA-MB-435
T47D = tested on: T47D
NCI-H460 = tested on: NCI-H460
786-0 = tested on: 786-0
KM12 = tested on: KM12
SF-295 = tested on: SF-295
UO-31 = tested on: UO-31
LOX IMVI = tested on: LOX IMVI
COLO 205 = tested on: COLO 205
SNB-19 = tested on: SNB-19
MCF7 = tested on: MCF7
OVCAR-4 = tested on: OVCAR-4
HOP-62 = tested on: HOP-62
U-251 = tested on: U-251
SF-268 = tested on: SF-268
SNB-75 = tested on: SNB-75
HCC 2998 = tested on: HCC 2998
TK-10 = tested on: TK-10
SF-539 = tested on: SF-539
CCRF-CEM = tested on: CCRF-CEM
SK-OV-3 = tested on: SK-OV-3
MDA-N = tested on: MDA-N
PC-3 = tested on: PC-3
OVCAR-3 = tested on: OVCAR-3
DU-145 = tested on: DU-145
K562 = tested on: K562
SW-620 = tested on: SW-620
SN12C = tested on: SN12C
NCI/ADR-RES = tested on: NCI/ADR-RES
OVCAR-8 = tested on: OVCAR-8
HL-60 = tested on: HL-60
HCT-116 = tested on: HCT-116
SK-MEL-5 = tested on: SK-MEL-5
Hs-578T = tested on: Hs-578T
ACHN = tested on: ACHN
OVCAR-5 = tested on: OVCAR-5
NCI-H23 = tested on: NCI-H23
HOP-92 = tested on: HOP-92
SK-MEL-2 = tested on: SK-MEL-2
M14 = tested on: M14
NCI-H226 = tested on: NCI-H226
IGROV-1 = tested on: IGROV-1
NCI-H522 = tested on: NCI-H522
RPMI-8226 = tested on: RPMI-8226

In the case of `CC(=O)NCC1OC2COC(c3ccccc3)OC2C(NC(=O)c2ccccc2)C1OC(=O)c1ccccc1` (stereo not drawn), the GI50 (BT-549) is reported as > 100 µM (inactive), the GI50 (EKVX) is reported as > 100 µM (inactive) and the GI50 (Malme-3M) is reported as > 100 µM (inactive). The GI50 (UACC-62) was > 100 µM (inactive), the GI50 (MDA-MB-231) was > 100 µM (inactive) and the GI50 (RXF 393) was 35 µM (inactive). The GI50 (SK-MEL-28) was > 100 µM (inactive), the GI50 (A498) was 44.5 µM (inactive) and the GI50 (A549) was > 100 µM (inactive). The GI50 (MOLT-4) was 86.7 µM (inactive), the GI50 (CAKI-1) was > 100 µM (inactive) and the GI50 (HCT-15) was greater than 100 µM. For the same molecule, the GI50 (UACC-257) was > 100 µM (inactive), the GI50 (HT-29) was > 100 µM (inactive) and the GI50 (MDA-MB-435) was > 100 µM (inactive). The GI50 (T47D) was 34.5 µM (inactive), the GI50 (NCI-H460) was > 100 µM (inactive) and the GI50 (786-0) was > 100 µM (inactive). For the same molecule, the GI50 (KM12) was > 100 µM (inactive), the GI50 (SF-295) was > 100 µM (inactive) and the GI50 (UO-31) was > 100 µM (inactive). For the same molecule, the GI50 (LOX IMVI) was > 100 µM (inactive), the GI50 (COLO 205) was > 100 µM (inactive) and the GI50 (SNB-19) was > 100 µM (inactive). For the same molecule, the GI50 (MCF7) was > 100 µM (inactive), the GI50 (OVCAR-4) was > 100 µM (inactive) and the GI50 (HOP-62) was > 100 µM (inactive). The GI50 (U-251) was > 100 µM (inactive), the GI50 (SF-268) was > 100 µM (inactive) and the GI50 (SNB-75) was > 100 µM (inactive). For the same molecule, the GI50 (HCC 2998) was > 100 µM (inactive), the GI50 (TK-10) was > 100 µM (inactive) and the GI50 (SF-539) was > 100 µM (inactive). For the same molecule, the GI50 (CCRF-CEM) was > 100 µM (inactive), the GI50 (SK-OV-3) was > 100 µM (inactive) and the GI50 (MDA-N) was > 100 µM (inactive). The GI50 (PC-3) was 33.3 µM (inactive), the GI50 (OVCAR-3) was > 100 µM (inactive) and the GI50 (DU-145) was > 100 µM (inactive). For the same molecule, the GI50 (K562) was > 100 µM (inactive), the GI50 (SW-620) was > 100 µM (inactive) and the GI50 (SN12C) was 60.3 µM (inactive). The GI50 (NCI/ADR-RES) was > 100 µM (inactive), the GI50 (OVCAR-8) was > 100 µM (inactive) and the GI50 (HL-60) was 85.5 µM (inactive). The GI50 (HCT-116) was > 100 µM (inactive), the GI50 (SK-MEL-5) was > 100 µM (inactive) and the GI50 (Hs-578T) was > 100 µM (inactive). For the same molecule, the GI50 (ACHN) was > 100 µM (inactive), the GI50 (OVCAR-5) was > 100 µM (inactive) and the GI50 (NCI-H23) was > 100 µM (inactive). For the same molecule, the GI50 (HOP-92) was > 100 µM (inactive), the GI50 (SK-MEL-2) was > 100 µM (inactive) and the GI50 (M14) was > 100 µM (inactive). For the same molecule, the GI50 (NCI-H226) was > 100 µM (inactive).

With `Cc1nc(-c2ccccc2)c(-c2ccccc2)s1` the GI50 (IGROV-1) was 18.6 µM (inactive), the GI50 (BT-549) was 23.9 µM (inactive) and the GI50 (EKVX) was 22.6 µM (inactive). The GI50 (Malme-3M) was 21.4 µM (inactive), the GI50 (UACC-62) was 18 µM (inactive) and the GI50 (MDA-MB-231) was 22.5 µM (inactive). The GI50 (RXF 393) was 19.4 µM (inactive), the GI50 (SK-MEL-28) was 45 µM (inactive) and the GI50 (A498) was 17.6 µM (inactive). For the same molecule, the GI50 (A549) was 25.8 µM (inactive), the GI50 (MOLT-4) was 17.6 µM (inactive) and the GI50 (CAKI-1) was 20.2 µM (inactive). The GI50 (HCT-15) was 17.7 µM, the GI50 (UACC-257) was 25.1 µM (inactive) and the GI50 (HT-29) was 17.9 µM (inactive). The GI50 (MDA-MB-435) was 17.9 µM (inactive), the GI50 (T47D) was 37.8 µM (inactive) and the GI50 (NCI-H460) was 19.1 µM (inactive). For the same molecule, the GI50 (786-0) was 21.4 µM (inactive), the GI50 (KM12) was 20.4 µM (inactive) and the GI50 (SF-295) was 24.8 µM (inactive). The GI50 (UO-31) was 20.2 µM (inactive), the GI50 (LOX IMVI) was 16.4 µM (inactive) and the GI50 (COLO 205) was 18.3 µM (inactive). For the same molecule, the GI50 (NCI-H522) was 18.6 µM (inactive), the GI50 (SNB-19) was 31 µM (inactive) and the GI50 (MCF7) was 25.3 µM (inactive). The GI50 (OVCAR-4) was 19.6 µM (inactive), the GI50 (HOP-62) was 38 µM (inactive) and the GI50 (U-251) was 15.2 µM (inactive). For the same molecule, the GI50 (SF-268) was 25.6 µM (inactive), the GI50 (SNB-75) was 23.4 µM (inactive) and the GI50 (HCC 2998) was 12.7 µM (inactive). The GI50 (TK-10) was 19.7 µM (inactive), the GI50 (SF-539) was 22.6 µM (inactive) and the GI50 (CCRF-CEM) was 16.5 µM (inactive). For the same molecule, the GI50 (SK-OV-3) was 22.9 µM (inactive), the GI50 (MDA-N) was 11.4 µM (inactive) and the GI50 (PC-3) was 14.2 µM (inactive). The GI50 (OVCAR-3) was 23.5 µM (inactive), the GI50 (DU-145) was 32 µM (inactive) and the GI50 (K562) was 18.8 µM (inactive). For the same molecule, the GI50 (SW-620) was 15.7 µM (inactive), the GI50 (SN12C) was 37.9 µM (inactive) and the GI50 (NCI/ADR-RES) was 24.2 µM (inactive). For the same molecule, the GI50 (OVCAR-8) was 27.1 µM (inactive), the GI50 (HL-60) was 10 µM (inactive) and the GI50 (HCT-116) was 25.6 µM (inactive). The GI50 (SK-MEL-5) was 14.4 µM (inactive), the GI50 (Hs-578T) was 21.8 µM (inactive) and the GI50 (ACHN) was 26.9 µM (inactive). The GI50 (OVCAR-5) was 27.6 µM (inactive), the GI50 (NCI-H23) was 28.1 µM (inactive) and the GI50 (HOP-92) was 20.6 µM (inactive). For the same molecule, the GI50 (SK-MEL-2) was 16.7 µM (inactive), the GI50 (M14) was 19.9 µM (inactive) and the GI50 (NCI-H226) was 17.9 µM (inactive). The GI50 (RPMI-8226) was 14.3 µM (inactive).

In the case of `CC12CC(OC(=O)[C@]1(C)O)[C@@H]([C@]1(O)CC[C@H]3[C@@H]4C[C@H]5O[C@]56[C@@H](O)C=CC(=O)[C@]6(C)[C@H]4CC[C@@]31C)C2` (stereo partly drawn), the GI50 (IGROV-1) is reported as 17.3 µM (inactive), the GI50 (BT-549) is reported as 4.06 µM (inactive) and the GI50 (EKVX) is reported as 2.84 µM (inactive). The GI50 (UACC-62) was 14.6 µM (inactive), the GI50 (MDA-MB-231) was 5.2 µM (inactive) and the GI50 (RXF 393) was 3.01 µM (inactive). For the same molecule, the GI50 (SK-MEL-28) was 11.7 µM (inactive), the GI50 (A498) was 13.8 µM (inactive) and the GI50 (A549) was 30.5 µM (inactive). For the same molecule, the GI50 (MOLT-4) was 2.54 µM (inactive), the GI50 (CAKI-1) was 9.59 µM (inactive) and the GI50 (HCT-15) was 7.33 µM. The GI50 (UACC-257) was 7 µM (inactive), the GI50 (HT-29) was 4.03 µM (inactive) and the GI50 (MDA-MB-435) was 7.4 µM (inactive). The GI50 (T47D) was 8.02 µM (inactive), the GI50 (NCI-H460) was 12.3 µM (inactive) and the GI50 (786-0) was 3.04 µM (inactive). For the same molecule, the GI50 (KM12) was 14.4 µM (inactive), the GI50 (SF-295) was 33.7 µM (inactive) and the GI50 (UO-31) was 4.32 µM (inactive). For the same molecule, the GI50 (LOX IMVI) was 4.42 µM (inactive), the GI50 (COLO 205) was 3.39 µM (inactive) and the GI50 (NCI-H522) was 1.16 µM (inactive). For the same molecule, the GI50 (SNB-19) was 40.1 µM (inactive), the GI50 (MCF7) was 3.08 µM (inactive) and the GI50 (OVCAR-4) was 11.2 µM (inactive). The GI50 (HOP-62) was 28.9 µM (inactive), the GI50 (U-251) was 13.8 µM (inactive) and the GI50 (SF-268) was 5.41 µM (inactive). The GI50 (HCC 2998) was 16.2 µM (inactive), the GI50 (TK-10) was 7.36 µM (inactive) and the GI50 (SF-539) was 2.78 µM (inactive). For the same molecule, the GI50 (CCRF-CEM) was 1.33 µM (inactive), the GI50 (SK-OV-3) was 34.1 µM (inactive) and the GI50 (MDA-N) was 7.21 µM (inactive). For the same molecule, the GI50 (PC-3) was 12.1 µM (inactive), the GI50 (OVCAR-3) was 2.59 µM (inactive) and the GI50 (DU-145) was 22.2 µM (inactive). For the same molecule, the GI50 (K562) was 3.17 µM (inactive), the GI50 (SW-620) was 3.18 µM (inactive) and the GI50 (SN12C) was 6.19 µM (inactive). The GI50 (NCI/ADR-RES) was 5.35 µM (inactive), the GI50 (OVCAR-8) was 3.37 µM (inactive) and the GI50 (HL-60) was < 0.01 µM (active). The GI50 (HCT-116) was 3.63 µM (inactive), the GI50 (SK-MEL-5) was 0.785 µM (active) and the GI50 (Hs-578T) was 6.71 µM (inactive). The GI50 (ACHN) was 10.9 µM (inactive), the GI50 (OVCAR-5) was 11 µM (inactive) and the GI50 (NCI-H23) was 4.08 µM (inactive). The GI50 (HOP-92) was 2.92 µM (inactive), the GI50 (SK-MEL-2) was 6.08 µM (inactive) and the GI50 (M14) was 9.02 µM (inactive). The GI50 (NCI-H226) was 40.7 µM (inactive).

— ChEMBL document CHEMBL1201862, “PubChem BioAssay data set” (2004)
